Laboratory results: patent US4216324A, “1-Difluoromethyl-6,7-methylenedioxy-1,4-dihyd ro-4-oxo-3-quinolinecarboxylic acid” (E. I. Du Pont de Nemours and Company, priority 1978, dated 1980)
≈ marks a conversion by molar mass, not a printed value. Read-outs that look alike come from different tables or passages of the source.

Tests used:
[1] = system: Bac. subtilis; assay: In vitro minimum inhibitory concentration (MIC), tube dilution test; type: cell-based; conditions: Bacillus subtilis; Bac. subtilis (07A); brain-heart infusion broth, 20hour incubation at 37° C.; read-out: Minimal Inhibitory Test Conens. (MIC)
Method: (§1) A. In vitro: mimimum inhibitory concentration (MIC)
(§2) The compound was tested in a standard bacteriological tube dilution test for MIC for a variety of bacteria. Stock cultures of the bacteria listed in Table 1 were grown in bacterial culture media at 37° C. overnight and diluted in culture tubes to a previously determined concentration proper for the test. The compound was added to result in final concentrations of 10, 2, 0.4 and 0.08 μg/ml. These were incubated for 18 hours at 37° C. and then observed to determine if growth of bacteria had occurred. The lowest concentration of the compound that inhibited bacterial growth in the MIC.
(§3) *brain-heart infusion broth, 20hour incubation at 37° C.

[2] = system: E. coli; assay: as above; type: cell-based; conditions: Escherichia coli, 20 h, brain-heart infusion broth, 20hour incubation at 37° C., read-out: Minimal Inhibitory Test Conens. (MIC)
Method: as §1, §2, §3

[3] = system: Kleb. aerobacter; assay: as above; type: cell-based; conditions: Kleb. aerobacter (20F); brain-heart infusion broth, 20hour incubation at 37° C.; read-out: Minimal Inhibitory Test Conens. (MIC)
Method: as §1, §2, §3

[4] = system: Proteus sp.; assay: as above; type: cell-based; conditions: brain-heart infusion broth, 20hour incubation at 37° C., read-out: Minimal Inhibitory Test Conens. (MIC)
Method: as §1, §2, §3

[5] = system: Proteus vulgaris; assay: as above; type: cell-based; conditions: Proteus vulgaris (14P); brain-heart infusion broth, 20hour incubation at 37° C.; read-out: Minimal Inhibitory Test Conens. (MIC)
Method: as §1, §2, §3

[6] = system: Sal. choleraesuis; assay: as above; type: cell-based; conditions: Salmonella enterica, 20 h, read-out: Minimal Inhibitory Test Conens. (MIC)
Method: as §1, §2, §3

[7] = system: Sal. gallinarum; assay: as above; type: cell-based; conditions: Salmonella enterica, 20 h, brain-heart infusion broth, 20hour incubation at 37° C., read-out: Minimal Inhibitory Test Conens. (MIC)
Method: as §1, §2, §3

[8] = system: Sal. typhimurium; assay: as above; type: cell-based; conditions: Salmonella enterica, 20 h, brain-heart infusion broth, 20hour incubation at 37° C., read-out: Minimal Inhibitory Test Conens. (MIC)
Method: as §1, §2, §3

[9] = system: Sal. typhi; assay: as above; type: cell-based; conditions: brain-heart infusion broth, 20hour incubation at 37° C.
Method: as §1, §2, §3

[10] = system: Ser. marcescens; assay: as above; type: cell-based; conditions: Serratia marcescens; Ser. marcescens (22); brain-heart infusion broth, 20hour incubation at 37° C.; read-out: Minimal Inhibitory Test Conens. (MIC)
Method: as §1, §2, §3

[11] = system: Shiq. dysenteriae; assay: as above; type: cell-based; conditions: 20 h, read-out: Minimal Inhibitory Test Conens. (MIC)
Method: as §1, §2, §3

[12] = system: Staph. aureus; assay: as above; type: cell-based; conditions: Staphylococcus aureus; Staph. aureus (08F); brain-heart infusion broth, 20hour incubation at 37° C.; read-out: Minimal Inhibitory Test Conens. (MIC)
Method: as §1, §2, §3

[13] = system: Strep. pyogenes; assay: as above; type: cell-based; conditions: Streptococcus pyogenes; Strep. pyogenes (10V); brain-heart infusion broth, 20hour incubation at 37° C.; read-out: Minimal Inhibitory Test Conens. (MIC)
Method: as §1, §2, §3

[14] = General pharmacology screen in mice; conditions: mouse, in vivo, po; for TD50: doses given in mg./kg
Method: 17- to 24-hour fasted female white mice, 16-20 g. each, or rats, 70-90 g. each were dosed orally with test drug (or standard) at 0, 4, 12, 36, 108 or 324 mg./kg.
Ataxia--The mouse or rat was placed upright on the bench top facing away from the observer. Motor incoordination manifested by abnormal gait or lack of precision during purposive movements constituted ataxia.
Vertical Bar--The mouse or rat was swung by the tail with head pointing down to a 0.5" diameter (1" diameter for rats), 30.5 cm long vertical rod covered with adhesive tape. Inability to grip the rod with the front paws, sliding or failure to move after being prodded constituted vertical bar loss.
Body Temperature--The rectal temperatures of the mice and rats were taken using a KC-1 thermocouple probe.
Excitement and Irritability--Increased spontaneous motor activity, running and jumping prior to handling were recorded as excitement. Upon handling, jumping, jerking, biting and squeaking were recorded as irritability.
Anorexia--At the end of the 0.5 hour testing period, each mouse was transferred to an individual, clear, Lucite® compartment (13.3 cm×12.7 cm×12.7 cm) with a 0.64 cm×0.64 cm wire mesh floor. Inside each compartment there was a section of a black Lucite® bar [13 cm×1.2 cm×1.2 cm) with ten spot depressions (0.8 cm diameter) each containing 0.05 ml. of 50% sweetened condensed milk. 30 Minutes later the number of milk spots consumed was counted. 5 Mice per drug dose can drink a maximum of 50 spots (2.5 ml. of milk). 15 or fewer spots consumed by 5 mice constituted anorexia.

[15] = General pharmacology screen in rats; conditions: in vivo, rat, doses given in mg./kg; for TD50: po
[16] = system: Pseud. aeruginosa; assay: In vitro minimum inhibitory concentration (MIC), tube dilution test; type: cell-based; conditions: Pseudomonas aeruginosa, 20 h, brain-heart infusion broth, 20hour incubation at 37° C., read-out: Minimal Inhibitory Test Conens. (MIC)

CCn1cc(C(=O)O)c(=O)c2cc3c(cc21)OCO3 [Oxolinic Acid, oxolinic acid]
MIC [1]: < 0.08 µg/mL
MIC ([2]; E. coli (06-2B)): 2 µg/mL (≈ 7.66 µM)
MIC ([2]; E. coli (06-2F)): 0.4 µg/mL (≈ 1.53 µM)
MIC ([2]; E. coli (06-2L)): 10 µg/mL (≈ 38.3 µM)
MIC ([2]; E. coli (06-2M)): < 0.08 µg/mL
MIC ([2]; E. coli (06C)): 2 µg/mL (≈ 7.66 µM)
MIC ([2]; E. coli (06I)): 10 µg/mL (≈ 38.3 µM)
MIC ([2]; E. coli (06J)): 0.4 µg/mL (≈ 1.53 µM)
MIC ([2]; E. coli (06K)): 0.4 µg/mL (≈ 1.53 µM)
MIC ([2]; E. coli (06L)): 0.4 µg/mL (≈ 1.53 µM)
MIC ([2]; E. coli (06M)): 0.4 µg/mL (≈ 1.53 µM)
MIC ([2]; E. coli (06S)): 2 µg/mL (≈ 7.66 µM)
MIC ([2]; E. coli (06V)): 0.4 µg/mL (≈ 1.53 µM)
MIC ([2]; E. coli (06X)): 2 µg/mL (≈ 7.66 µM)
MIC ([2]; E.coli (06-2D)): 2 µg/mL (≈ 7.66 µM)
MIC [3]: > 10 µg/mL
MIC [4]: < 0.08 µg/mL
MIC [5]: 2 µg/mL (≈ 7.66 µM)
MIC [6]: < 0.08 µg/mL
MIC ([7]; Sal. gallinarum (04C)): 2 µg/mL (≈ 7.66 µM)
MIC ([7]; Sal. gallinarum (04D)): 0.4 µg/mL (≈ 1.53 µM)
MIC ([8]; Sal. typhimurium (03A)): 0.4 µg/mL (≈ 1.53 µM)
MIC ([8]; Sal. typhimurium (03C)): 0.4 µg/mL (≈ 1.53 µM)
MIC ([8]; Sal. typhimurium (03K)): < 0.08 µg/mL
Minimal Inhibitory Test Conens. (MIC) ([9]; Sal. typhi (02B)): 0.4 µg/mL
MIC ([9]; Salmonella enterica, Sal. typhi (02A), read-out: Minimal Inhibitory Test Conens. (MIC)): 0.4 µg/mL (≈ 1.53 µM)
MIC [10]: 0.4 µg/mL (≈ 1.53 µM)
MIC [11]: 0.4 µg/mL (≈ 1.53 µM)
MIC [12]: 0.4 µg/mL (≈ 1.53 µM)
MIC [13]: < 0.08 µg/mL
LD50 at 24 h [14]: > 450 mg/kg
TD50 ([14]; ED50 Anoroxia, 15 or fewer milk spots consumed by 5 mice): 21 mg/kg
TD50 ([14]; ED50 Ataxia): 3.2 mg/kg
TD50 ([14]; ED50 Excitation): 8 mg/kg
TD50 ([14]; ED50 Hypertherm., rectal temperature): > 450 mg/kg
TD50 ([14]; ED50 Hypotherm., rectal temperature): > 450 mg/kg
TD50 ([14]; ED50 Irritability): 36 mg/kg
TD50 ([14]; ED50 Vert. Bar, vertical bar loss): 4.5 mg/kg
LD50 at 24 h ([15]; oral, read-out: ED50 24-Hour Mort.): > 324 mg/kg
TD50 ([15]; read-out: ED50 Ataxia): 97 mg/kg
TD50 ([15]; read-out: ED50 Excitation): 62 mg/kg
TD50 ([15]; read-out: ED50 Irritability): > 324 mg/kg
TD50 ([15]; rectal temperature, read-out: ED50 Hypertherm.): 121 mg/kg
TD50 ([15]; rectal temperature, read-out: ED50 Hypotherm.): > 324 mg/kg
TD50 ([15]; vertical bar loss, read-out: ED50 Vert. Bar): 187 mg/kg
MIC ([16]; Pseud. aeruginosa (11B)): 2 µg/mL (≈ 7.66 µM)
MIC ([16]; Pseud. aeruginosa (11C)): 2 µg/mL (≈ 7.66 µM)
MIC ([16]; Pseud. aeruginosa (11D)): 10 µg/mL (≈ 38.3 µM)
MIC ([16]; Pseud. aeruginosa (11G)): 10 µg/mL (≈ 38.3 µM)
MIC ([16]; Pseud. aeruginosa (11I)): 2 µg/mL (≈ 7.66 µM)
MIC ([16]; Pseud. aeruginosa (11J)): 2 µg/mL (≈ 7.66 µM)
